Test results published in ChEMBL document CHEMBL4257522, “Synthesis and preliminary anti-inflammatory and anti-bacterial evaluation of some diflunisal aza-analogs” (Medchemcomm, 2018).
Active and inactive are the calls of the source. No cut-off for these calls is given here.

Tests used:
[1] = tested on: Staphylococcus aureus; assay: Potentiation of erythromycin-induced antibacterial activity against Staphylococcus aureus ATCC 33592 assessed as minimum modulatory concentration up to 32 uM measured after 16 hrs in presence of MIC/4 erythromycin; format: functional; conditions: ATCC 33592, 16 h, read-out: MEC
[2] = tested on: Staphylococcus aureus; assay: Potentiation of geneticin-induced antibacterial activity against Staphylococcus aureus ATCC 33592 assessed as minimum modulatory concentration up to 32 uM measured after 16 hrs in presence of MIC/4 geneticin; format: functional; conditions: ATCC 33592, 16 h, read-out: MEC
[3] = tested on: Escherichia coli; assay: Potentiation of erythromycin-induced antibacterial activity against Escherichia coli ATCC 43894 assessed as minimum modulatory concentration up to 32 uM measured after 16 hrs in presence of MIC/4 erythromycin; format: functional; conditions: ATCC 43894, 16 h, read-out: MEC
[4] = tested on: Streptococcus pyogenes; assay: Potentiation of geneticin-induced antibacterial activity against Streptococcus pyogenes ATCC 14289 assessed as minimum modulatory concentration up to 32 uM measured after 16 hrs in presence of MIC/4 geneticin; format: functional; conditions: ATCC 14289, 16 h, read-out: MEC
[5] = tested on: Macrophage cell line; assay: Induction of IL-1beta production in human PBMC-differentiated macrophages after 24 hrs by ELISA; format: cell-based
[6] = tested on: Klebsiella pneumoniae; assay: Potentiation of erythromycin-induced antibacterial activity against Klebsiella pneumoniae ATCC 13883 assessed as minimum modulatory concentration up to 32 uM measured after 16 hrs in presence of MIC/4 erythromycin; format: functional; conditions: ATCC 13883, 16 h, read-out: MEC
[7] = tested on: Macrophage cell line; assay: Induction of prostaglandin production in human PBMC-differentiated macrophages after 24 hrs by ELISA; format: cell-based
[8] = tested on: Macrophage cell line; assay: Antiinflammatory activity in human PBMC-differentiated macrophages assessed as inhibition of LPS-induced IL-8 production at 0.01 to 10 uM measured after 24 hrs by ELISA; format: functional, cell-based
[9] = tested on: Macrophage cell line; assay: Induction of TNFalpha production in human PBMC-differentiated macrophages after 24 hrs by ELISA; format: cell-based
[10] = tested on: Pseudomonas aeruginosa; assay: Potentiation of ciprofloxacin-induced antibacterial activity against Pseudomonas aeruginosa ATCC BAA-2108 assessed as minimum modulatory concentration up to 32 uM measured after 16 hrs in presence of MIC/4 ciprofloxacin; format: functional; conditions: ATCC BAA-2108, 16 h, read-out: MEC
[11] = tested on: Streptococcus pyogenes; assay: Potentiation of tetracycline-induced antibacterial activity against Streptococcus pyogenes ATCC 14289 assessed as minimum modulatory concentration up to 32 uM measured after 16 hrs in presence of MIC/4 tetracycline; format: functional; conditions: ATCC 14289, 16 h, read-out: MEC
[12] = tested on: Enterococcus faecium; assay: Potentiation of ciprofloxacin-induced antibacterial activity against Enterococcus faecium ATCC 700221 assessed as minimum modulatory concentration up to 32 uM measured after 16 hrs in presence of MIC/4 ciprofloxacin; format: functional; conditions: ATCC 700221, 16 h, read-out: MEC
[13] = tested on: Escherichia coli; assay: Toxicity in Escherichia coli ATCC 43894 up to 32 uM measured after 16 hrs; format: organism-based
[14] = tested on: Staphylococcus aureus; assay: Potentiation of tetracycline-induced antibacterial activity against Staphylococcus aureus ATCC 33592 assessed as minimum modulatory concentration up to 32 uM measured after 16 hrs in presence of MIC/4 tetracycline; format: functional; conditions: ATCC 33592, 16 h, read-out: MEC
[15] = tested on: Enterococcus faecium; assay: Potentiation of geneticin-induced antibacterial activity against Enterococcus faecium ATCC 700221 assessed as minimum modulatory concentration up to 32 uM measured after 16 hrs in presence of MIC/4 geneticin; format: functional; conditions: ATCC 700221, 16 h, read-out: MEC
[16] = tested on: Staphylococcus aureus; assay: Potentiation of ciprofloxacin-induced antibacterial activity against Staphylococcus aureus ATCC 33592 assessed as minimum modulatory concentration up to 32 uM measured after 16 hrs in presence of MIC/4 ciprofloxacin; format: functional; conditions: ATCC 33592, 16 h, read-out: MEC
[17] = tested on: Streptococcus pyogenes; assay: Potentiation of erythromycin-induced antibacterial activity against Streptococcus pyogenes ATCC 14289 assessed as minimum modulatory concentration up to 32 uM measured after 16 hrs in presence of MIC/4 erythromycin; format: functional; conditions: ATCC 14289, 16 h, read-out: MEC
[18] = tested on: Pseudomonas aeruginosa; assay: Potentiation of tetracycline-induced antibacterial activity against Pseudomonas aeruginosa ATCC BAA-2108 assessed as minimum modulatory concentration up to 32 uM measured after 16 hrs in presence of MIC/4 tetracycline; format: functional; conditions: ATCC BAA-2108, 16 h, read-out: MEC
[19] = tested on: Enterococcus faecium; assay: Toxicity in Enterococcus faecium ATCC 700221 up to 32 uM measured after 16 hrs; format: organism-based; conditions: in vitro
[20] = tested on: Pseudomonas aeruginosa; assay: Potentiation of erythromycin-induced antibacterial activity against Pseudomonas aeruginosa ATCC BAA-2108 assessed as minimum modulatory concentration up to 32 uM measured after 16 hrs in presence of MIC/4 erythromycin; format: functional; conditions: ATCC BAA-2108, 16 h, read-out: MEC
[21] = tested on: Enterococcus faecium; assay: Potentiation of methicillin-induced antibacterial activity against Enterococcus faecium ATCC 700221 assessed as minimum modulatory concentration up to 32 uM measured after 16 hrs in presence of MIC/4 methicillin; format: functional; conditions: ATCC 700221, 16 h, read-out: MEC
[22] = tested on: Staphylococcus aureus; assay: Potentiation of methicillin-induced antibacterial activity against Staphylococcus aureus ATCC 33592 assessed as minimum modulatory concentration up to 32 uM measured after 16 hrs in presence of MIC/4 methicillin; format: functional; conditions: ATCC 33592, 16 h, read-out: MEC
[23] = tested on: Streptococcus pyogenes; assay: Potentiation of methicillin-induced antibacterial activity against Streptococcus pyogenes ATCC 14289 assessed as minimum modulatory concentration up to 32 uM measured after 16 hrs in presence of MIC/4 methicillin; format: functional; conditions: ATCC 14289, 16 h, read-out: MEC
[24] = tested on: Klebsiella pneumoniae; assay: Toxicity in Klebsiella pneumoniae ATCC 13883 up to 32 uM measured after 16 hrs; format: organism-based
[25] = tested on: Macrophage cell line; assay: Cytotoxicity against human PBMC-differentiated macrophages treated for 24 hrs followed by compound washout and measured after 48 hrs by MTT assay; format: cell-based
[26] = tested on: Staphylococcus aureus; assay: Toxicity in Staphylococcus aureus ATCC 33592 up to 32 uM measured after 16 hrs; format: organism-based
[27] = tested on: Streptococcus pyogenes; assay: Potentiation of ciprofloxacin-induced antibacterial activity against Streptococcus pyogenes ATCC 14289 assessed as minimum modulatory concentration up to 32 uM measured after 16 hrs in presence of MIC/4 ciprofloxacin; format: functional; conditions: ATCC 14289, 16 h, read-out: MEC
[28] = tested on: Enterococcus faecium; assay: Potentiation of tetracycline-induced antibacterial activity against Enterococcus faecium ATCC 700221 assessed as minimum modulatory concentration up to 32 uM measured after 16 hrs in presence of MIC/4 tetracycline; format: functional; conditions: ATCC 700221, 16 h, read-out: MEC
[29] = tested on: Klebsiella pneumoniae; assay: Potentiation of geneticin-induced antibacterial activity against Klebsiella pneumoniae ATCC 13883 assessed as minimum modulatory concentration up to 32 uM measured after 16 hrs in presence of MIC/4 geneticin; format: functional; conditions: ATCC 13883, 16 h, read-out: MEC
[30] = tested on: Escherichia coli; assay: Potentiation of geneticin-induced antibacterial activity against Escherichia coli ATCC 43894 assessed as minimum modulatory concentration up to 32 uM measured after 16 hrs in presence of MIC/4 geneticin; format: functional; conditions: ATCC 43894, 16 h, read-out: MEC
[31] = tested on: Klebsiella pneumoniae; assay: Potentiation of methicillin-induced antibacterial activity against Klebsiella pneumoniae ATCC 13883 assessed as minimum modulatory concentration up to 32 uM measured after 16 hrs in presence of MIC/4 methicillin; format: functional; conditions: ATCC 13883, 16 h, read-out: MEC
[32] = tested on: Escherichia coli; assay: Potentiation of ciprofloxacin-induced antibacterial activity against Escherichia coli ATCC 43894 assessed as minimum modulatory concentration up to 32 uM measured after 16 hrs in presence of MIC/4 ciprofloxacin; format: functional; conditions: ATCC 43894, 16 h, read-out: MEC
[33] = tested on: Enterococcus faecium; assay: Potentiation of erythromycin-induced antibacterial activity against Enterococcus faecium ATCC 700221 assessed as minimum modulatory concentration up to 32 uM measured after 16 hrs in presence of MIC/4 erythromycin; format: functional; conditions: ATCC 700221, 16 h, read-out: MEC
[34] = tested on: Pseudomonas aeruginosa; assay: Toxicity in Pseudomonas aeruginosa ATCC BAA-2108 up to 32 uM measured after 16 hrs; format: organism-based; conditions: in vitro

SMILES	minimal effective concentration [1] [µM]	minimal effective concentration [2] [µM]	minimal effective concentration [3] [µM]	minimal effective concentration [4] [µM]	Activity [5]	minimal effective concentration [6] [µM]	Activity [7]	inhibition [8]	Activity [9]	minimal effective concentration [10] [µM]	minimal effective concentration [11] [µM]	minimal effective concentration [12] [µM]	Activity [13]	minimal effective concentration [14] [µM]	minimal effective concentration [15] [µM]	minimal effective concentration [16] [µM]	minimal effective concentration [17] [µM]	minimal effective concentration [18] [µM]	Activity [19]	minimal effective concentration [20] [µM]	also measured
O=C(O)c1cc(-c2ccccc2)ncc1O	> 32	> 32	> 32	16	Non-Toxic	> 32	Non-Toxic	inactive	Non-Toxic	> 32	> 32	> 32	Non-Toxic	> 32	> 32	16	> 32	> 32	Non-Toxic	> 32	minimal effective concentration [21]: > 32 µM; minimal effective concentration [22]: 16 µM; minimal effective concentration [23]: 16 µM; Activity [24]: Non-Toxic; IC50 [25]: 84.5 µM; Activity [26]: Non-Toxic; minimal effective concentration [27]: > 32 µM; minimal effective concentration [28]: > 32 µM; minimal effective concentration [29]: > 32 µM; minimal effective concentration [30]: > 32 µM; minimal effective concentration [31]: > 32 µM; minimal effective concentration [32]: > 32 µM; minimal effective concentration [33]: > 32 µM; Activity [34]: Non-Toxic
O=C(O)c1ccnc(Cc2ccccc2)c1O	> 32	> 32	> 32	> 32	Non-Toxic	> 32	Non-Toxic	inactive	Non-Toxic	> 32	> 32	> 32	Non-Toxic	> 32	> 32	> 32	> 32	> 32	Non-Toxic	> 32	minimal effective concentration [21]: > 32 µM; minimal effective concentration [22]: > 32 µM; minimal effective concentration [23]: > 32 µM; Activity [24]: Non-Toxic; IC50 [25]: > 100 µM; Activity [26]: Non-Toxic; minimal effective concentration [27]: > 32 µM; minimal effective concentration [28]: > 32 µM; minimal effective concentration [29]: > 32 µM; minimal effective concentration [30]: > 32 µM; minimal effective concentration [31]: > 32 µM; minimal effective concentration [32]: > 32 µM; minimal effective concentration [33]: > 32 µM; Activity [34]: Non-Toxic
